Source: patent US20120258117A1, “Methods and compositions for modulation of histone ubiquitination” (priority 2011, published 2012)

Columns and labels:
[1] = system: U87 cells; experiment: Cellular hypertrophy / cell morphology; assay type: cell-based, human
Excerpt: Specifically, resveratrol transformed spindle-shaped glioma cells to enlarged and irregular flatten-shaped ones. The mean diameter of the resveratrol-treated U87 was 5 fold longer than the diameter parallel to the spindle axis of the mock-or vehicle-treated glioma cells. In contrast, mock and vehicle (acetone) treatment had no effect on inducing cellular hypertrophy.
It was then examined whether depletion of RNF20 could induce cellular senescence in glioma cells. Depletion of RNF20 induced similar cellular hypertrophy as observed with resveratrol treatment. Specifically, depletion of RNF20 transformed spindle-shaped glioma cells into extremely enlarged and irregular flatten-shaped ones (data not shown).

[2] = system: U118 xenograft; experiment: Growth of human tumor xenograft from resveratrol-pretreated cells; assay type: in vivo, nude (nu/nu) mice; conditions: U118 treated 9 days in culture, 2×10^6 viable cells s.c. in nude mice; volume at 125 days post injection
Description: (§1) U87 or U118 Cells (2,000,000 in 0.1 ml PBS) were injected subcutaneously in the right flank of the female nude (nu/nu) mice (4-6 weeks old; Charles River Laboratories, Wilmington, Mass.). Five nude mice were used for each group. U87 tumor volume was measured at 27 days post injection while U118 tumor volume at 125 days post injection. When tumors were palpable, they were measured by a Vernier caliper in indicated days after injection. Tumor volume (TV) was calculated as follows: TV (mm^3)=LXW^2/2, where L is the longest dimension of the tumor (in mm), and W is the shortest dimension of the tumor. […] Glioma cells were then trypsinized, and 2×10^6 viable cells (by Trypan blue exclusion assay) were collected in 0.1 ml PBS. These cells were subsequently injected subcutaneously in the right flank of nude mice [female (nu/nu), 4-6 weeks old, 5 mice per group]. When the tumor was palpable, the size was measured with a Vernier caliper. Tumor volume was calculated (TV) using the formula: TV (mm^3)=LXW^2/2, in which L was the longest dimension of the tumor (in mm), and W was the shortest dimension of the tumor.

[3] = system: U87 xenograft; experiment: as above; assay type: in vivo, nude (nu/nu) mice; conditions: U87 treated 9 days in culture, 2×10^6 viable cells s.c. in nude mice; volume at 27 days post injection
Description: as §1

[4] = system: mono-ubiquitination of histone H2B at K120 (uH2B); experiment: Western analysis of uH2B, chronic (up to 9-day) resveratrol treatment; assay type: cell-based, human
Description: (§2) For short-term resveratrol treatment, cells in 60 mm dishes were allowed to grow to 40%-50% confluency. Their original media were changed to 5 ml DMEM media containing glucose (4.5 g/L) as the only carbon source (without both L-glutamine and sodium pyruvate). After one hour of media change, cells were collected as non-treated or treated with 5 μL acetone or resveratrol in 5 μL acetone vehicle for 4 hours and then collected for Western analysis. For long-term resveratrol treatment, 3×10^5 of U87 or U118 glioma cells were plated in 100 mm dishes. One day later, the culture media were replaced with fresh medium (10 mL/dish). […]
(§3) Cultured cells were harvested on ice (3-5 min) by scraping in the medium, centrifuged with about 300 relative centrifugal forces (RCF) for 2 minutes. […] Total protein was separated by 12% SDS polyacrylamide gel electrophoresis and analyzed with antibodies to H2B (Millipore, Billerica, Mass.), mono-ubiquitinated H2B (uH2B, MediMabs, Montreal, Quebec, Canada), RNF20 (Abcam, Cambridge, Mass.), p53 (Santa Cruz Biotechnology, Santa Cruz, Calif.). Immunoreactive bands were detected using SuperSignal kit (Thermo Scientific, Waltham, Mass.). […]

[5] = system: U87 glioma cells; experiment: Senescence-associated-β-galactosidase (SA-β-gal) staining; assay type: cell-based, human; conditions: resveratrol-induced hypertrophic cells
Description: (§4) Senescence-β-galactosidase staining was performed with a kit (Cat. #9860, Cell Signaling, Danvers, Mass.) according to manufacturer's protocol. Briefly, cells in 35 mm well were washed with 2 mL PBS, fixed for 10-15 minutes in 2 mL fixative solution, washed twice with 2 mL PBS, and then incubated in SA-β-gal staining solution overnight at 37° C. To determine whether cellular hypertrophy induced by resveratrol was associated with cellular senescence of glioma cells, expression of senescence-associated-β-galactosidase (SA-β-gal) marker was tested (G. P. Dimri, et al., Proc Natl Acad Sci USA 92 (1995) 9363-7; G. P. Dimri, et al., Biol Signals 5 (1996) 154-62).

[6] = system: U118 glioma cells; experiment: as above; assay type: cell-based, human; conditions: resveratrol-induced hypertrophic cells
Description: as §4

[7] = system: U118 cells; experiment: Cellular hypertrophy / cell morphology; assay type: cell-based, human; conditions: resveratrol treatment
[8] = system: U118 cells; experiment: Clonogenic assay (plating efficiency); assay type: cell-based, human; conditions: up to 9 days treatment, re-plated 1000-4000 cells, 14 days without resveratrol, dose-dependent
Description: (§5) Monolayer cultures of glioma cells were trypsinized and appropriate cell dilutions were re-plated. After 14 days, cultured cells were stained with 0.4% Coomassie Blue G250 in 50% methanol and 5% acetic acid. Colonies of 50 cells or more were counted. Plating efficiencies (PE) were calculated using the formula PE=(number of colonies counted/number of cells seeded)×100%. […] Monolayer cultures of glioma cells were trypsinized and seeded 1000, 2000, and 4000 cells separately in 60 mm culture dishes for incubation without further resveratrol treatment. After two weeks, these cell cultures were stained with 0.4% Coomassie Blue G250 in 50% methanol and 5% acetic acid. Colonies that contained more than 50 cells were counted. Cell clonogenicity was calculated with plating efficiencies (PE) using the formula PE=(number of colonies counted/number of cells seeded)×100%.

[9] = system: U87 cells; experiment: Clonogenic assay (plating efficiency); assay type: cell-based, human; conditions: up to 9 days treatment, re-plated 1000-4000 cells, 14 days without resveratrol, dose-dependent
Description: as §5

[10] = system: U118 cells; experiment: Cell proliferation (viable cell count, Trypan blue exclusion); assay type: cell-based, human; conditions: cells counted at 3, 6 and 9 days post treatment, dose- and time-dependent
Description: (§6) U87 MG and U118 MG (hereafter abbreviated as U87, U118 respectively) human glioblastoma (glioma) cell lines were kindly provided by Dr. Hui Zhang and Dr. Hong Sun. MCF7 (human breast cancer), H1299 (non-small cell lung carcinoma), and PC3 (human prostate cancer) cell lines were obtained from Dr. Giuseppe Pizzorno. Normal human dermal fibroblasts, HDF and normal human mammary epithelial cells, HMEpC, were purchased from Cell Applications (San Diego, Calif.). U118, U87, and MCF7 cultures were grown in high-glucose DMEM supplemented with 10% Fetal Bovine Serum (FBS, HyClone, Waltham, Mass.) and 1% Penicillin/Streptomycin. H1299 was grown in RPMI with 10% FBS and 1% Pen/Strep. PC3 cells were in F12K Medium with 10% FBS and 1% antibiotics. […] Cell number was measured by a hemacytometer (Hausser Scientific, Horsham, Pa.). Cell population doubling time (Td) was calculated from the exponential portion of the growth curve using the equation Td=0.693t/ln(Nt/N0), where t is time, and Nt and N0 represent cell numbers at time t and initial time, respectively (Y. Zhang, et al., Cancer Res 62 (2002) 1205-12). […]
(§7) To examine the effects of resveratrol on glioma cells, 5×10^4 U87 or U118 glioblastoma (Grade IV glioma cell) lines were plated in 60 mm dishes. […] Cells were then trypsinized and cell numbers counted at 3, 6, and 9 days post treatment.

[11] = system: U87 cells; experiment: as above; assay type: cell-based, human; conditions: cells counted at 3, 6 and 9 days post treatment, dose- and time-dependent
Description: as §6, §7

[12] = system: mono-ubiquitination of histone H2B at K120 (uH2B); experiment: Western analysis of uH2B, acute (4-hour) resveratrol treatment; assay type: cell-based, human
Description: as §2, §3

## Oc1ccc(/C=C/c2cc(O)cc(O)c2)cc1 [resveratrol, 3,4′,5-trihydroxy-trans-stilbene]
[1]
  mean diameter of treated cells versus diameter parallel to the spindle axis of mock- or vehicle-treated cells: 5 fold
[1]; resveratrol treatment
  cellular hypertrophy (cell volume and cell morphology): induced dramatic changes in cell volume and cell morphology
[2]
  tumorigenicity (tumor volume) in xenograft model: inhibited the tumorigenecity
[3]
  tumorigenicity (tumor volume) in xenograft model: inhibited the tumorigenecity
[4]; U87, chronic treatment up to 9 days, 6, 20, 60 μM
  uH2B level (Western): inhibited uH2B
[4]; U118, chronic treatment up to 9 days, 6, 10, 20 μM
  uH2B level (Western): inhibited uH2B
[5]
  expression of SA-β-gal senescence marker: SA-β-gal was detected
[6]
  expression of SA-β-gal senescence marker: SA-β-gal was detected
[7]
  cellular hypertrophy (cell volume and cell morphology): induced dramatic changes in cell volume and cell morphology
[8]
  clonogenicity (plating efficiency, colonies of more than 50 cells): marked decrease in their propensity for forming colonies
[9]
  clonogenicity (plating efficiency, colonies of more than 50 cells): marked decrease in their propensity for forming colonies
[10]
  proliferation of glioma cells (viable cell number): significantly inhibited proliferation
[11]
  proliferation of glioma cells (viable cell number): significantly inhibited proliferation
[12]; 10, 100, 500 μM for 4 h, U87, U118, MCF7, H1299, PC3, HDF, HMEpC
  uH2B level (Western): inhibited uH2B within 4 hours in a dose-dependent manner
[12]; acute incubation, high dose 500 μM
  uH2B level (Western): effective in inhibiting uH2B
